Measured values: PubChem BioAssay (NCI)
Where “and” joins values, the source holds several entries; their conditions need not be identical. Identical values can stand only once.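 Assay format: 96-well plates, 48-hour exposure. At the GI50, growth is halved. The concentration for full growth arrest is given as TGI.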

Experiments:
Test in all cases: DTP human tumour cell line panel, 48 h
U251 CNS = test system: U251 CNS
UO-31 renal = test system: UO-31 renal
NCI-H460 lung = test system: NCI-H460 lung
OVCAR-4 ovarian = test system: OVCAR-4 ovarian
LOX IMVI melanoma = test system: LOX IMVI melanoma
NCI-H522 lung = test system: NCI-H522 lung
A549 NSCLC = test system: A549 NSCLC
SF-295 CNS = test system: SF-295 CNS
CAKI-1 renal = test system: CAKI-1 renal
ACHN renal = test system: ACHN renal
HCT-15 colon = test system: HCT-15 colon

## CCOc1ccnc2c(OC)c(C)c3nc4ccccc4nc3c12
U251 CNS
  TGI: > 100 µM
UO-31 renal
  TGI: > 100 µM
NCI-H460 lung
  TGI: > 100 µM
OVCAR-4 ovarian
  TGI: > 100 µM
LOX IMVI melanoma
  TGI: > 100 µM
NCI-H522 lung
  TGI: > 100 µM
A549 NSCLC
  TGI: > 100 µM
SF-295 CNS
  TGI: > 100 µM
CAKI-1 renal
  TGI: > 100 µM
ACHN renal
  TGI: > 100 µM
HCT-15 colon
  TGI: > 100 µM

## CNC(=S)c1nnsc1N
U251 CNS
  TGI: > 100 µM
UO-31 renal
  TGI: > 100 µM
NCI-H460 lung
  TGI: 41.5 µM
OVCAR-4 ovarian
  TGI: > 100 µM
LOX IMVI melanoma
  TGI: > 100 µM
NCI-H522 lung
  TGI: > 100 µM
A549 NSCLC
  TGI: > 100 µM
SF-295 CNS
  TGI: > 100 µM
CAKI-1 renal
  TGI: > 100 µM
ACHN renal
  TGI: > 100 µM
HCT-15 colon
  TGI: > 100 µM

## c1ccc2c(CCNC3=NCCO3)cccc2c1
U251 CNS
  TGI: > 10 µM
UO-31 renal
  TGI: > 10 µM
NCI-H460 lung
  TGI: > 10 µM
OVCAR-4 ovarian
  TGI: > 10 µM
LOX IMVI melanoma
  TGI: > 10 µM
NCI-H522 lung
  TGI: > 10 µM
A549 NSCLC
  TGI: > 10 µM
SF-295 CNS
  TGI: > 10 µM
CAKI-1 renal
  TGI: > 10 µM
ACHN renal
  TGI: > 10 µM
HCT-15 colon
  TGI: > 10 µM

## CC(=O)Oc1ccc(C2SCc3nc4ccccc4n32)cc1 (configuration not stated)
U251 CNS
  TGI: > 100 µM
UO-31 renal
  TGI: > 61.5 µM
NCI-H460 lung
  TGI: > 100 µM
OVCAR-4 ovarian
  TGI: > 100 µM
LOX IMVI melanoma
  TGI: > 100 µM
NCI-H522 lung
  TGI: 69.2 µM
A549 NSCLC
  TGI: > 100 µM
SF-295 CNS
  TGI: > 100 µM
CAKI-1 renal
  TGI: > 93.2 µM
ACHN renal
  TGI: > 100 µM
HCT-15 colon
  TGI: > 100 µM

## Cc1ccc(S(=O)(=O)N/N=C2/C3CC4CCC2C4C3)cc1 (configuration not stated)
U251 CNS
  TGI: > 100 µM
UO-31 renal
  TGI: > 100 µM
NCI-H460 lung
  TGI: > 100 µM
OVCAR-4 ovarian
  TGI: > 100 µM
LOX IMVI melanoma
  TGI: > 100 µM
NCI-H522 lung
  TGI: > 100 µM
A549 NSCLC
  TGI: > 100 µM
SF-295 CNS
  TGI: > 100 µM
CAKI-1 renal
  TGI: > 100 µM
ACHN renal
  TGI: > 100 µM
HCT-15 colon
  TGI: > 100 µM

## O=C1N(c2ccccc2)N=C2c3ccncc3C3=NN(c4ccccc4)C(=O)C123 (configuration not stated)
U251 CNS
  TGI: > 100 µM
UO-31 renal
  TGI: > 100 µM
NCI-H460 lung
  TGI: > 100 µM
OVCAR-4 ovarian
  TGI: > 100 µM
LOX IMVI melanoma
  TGI: > 100 µM
NCI-H522 lung
  TGI: > 100 µM
A549 NSCLC
  TGI: > 100 µM
SF-295 CNS
  TGI: > 100 µM
CAKI-1 renal
  TGI: > 100 µM
ACHN renal
  TGI: > 100 µM
HCT-15 colon
  TGI: > 100 µM

## C=CCOC1=C(OC(C)=O)C(C2COC(C)(C)O2)OC1=O (configuration not stated)
U251 CNS
  TGI: 72.5 µM
UO-31 renal
  TGI: 33 µM
NCI-H460 lung
  TGI: 61.4 µM
OVCAR-4 ovarian
  TGI: 45.9 µM
LOX IMVI melanoma
  TGI: 24 µM
NCI-H522 lung
  TGI: 5.45 µM
A549 NSCLC
  TGI: 69.4 µM
SF-295 CNS
  TGI: > 100 µM
CAKI-1 renal
  TGI: 3.89 µM
ACHN renal
  TGI: 32.5 µM
HCT-15 colon
  TGI: 29.8 µM

## CCOC(=O)C1=CN(Cc2ccccc2)C2ON=C(c3ccc(Cl)cc3)C2C1 (configuration not stated)
U251 CNS
  TGI: 30.7 µM
UO-31 renal
  TGI: 52.5 µM
NCI-H460 lung
  TGI: > 65 µM
OVCAR-4 ovarian
  TGI: > 77.8 µM
LOX IMVI melanoma
  TGI: > 74.2 µM
NCI-H522 lung
  TGI: > 49.6 µM
A549 NSCLC
  TGI: > 59.6 µM
SF-295 CNS
  TGI: > 67 µM
CAKI-1 renal
  TGI: > 85.1 µM
ACHN renal
  TGI: > 65.2 µM
HCT-15 colon
  TGI: > 47.2 µM

## CC(C)[Si](CC1=CCCCC12C(=O)N(COCC[Si](C)(C)C)c1ccccc12)(C(C)C)C(C)C (configuration not stated)
U251 CNS
  TGI: > 100 µM
UO-31 renal
  TGI: > 100 µM
NCI-H460 lung
  TGI: > 100 µM
OVCAR-4 ovarian
  TGI: > 100 µM
LOX IMVI melanoma
  TGI: > 100 µM
NCI-H522 lung
  TGI: > 100 µM
A549 NSCLC
  TGI: > 100 µM
SF-295 CNS
  TGI: > 100 µM
CAKI-1 renal
  TGI: > 100 µM
ACHN renal
  TGI: > 100 µM
HCT-15 colon
  TGI: > 100 µM

## COc1ccc(-c2c(C#N)c(N)n(C3OC(COC(C)=O)C(OC(C)=O)C(OC(C)=O)C3OC(C)=O)c(=S)c2C#N)cc1 (configuration not stated)
U251 CNS
  TGI: > 100 µM
UO-31 renal
  GI50: 42.4 µM and 16.7 µM
  TGI: > 100 µM and 38.9 µM
NCI-H460 lung
  TGI: > 100 µM
OVCAR-4 ovarian
  TGI: > 100 µM and 55.6 µM
LOX IMVI melanoma
  TGI: > 100 µM
NCI-H522 lung
  TGI: > 100 µM and 52.6 µM
A549 NSCLC
  GI50: 36.2 µM and > 100 µM
  TGI: > 100 µM
SF-295 CNS
  TGI: > 100 µM
CAKI-1 renal
  TGI: > 100 µM
ACHN renal
  TGI: > 100 µM
HCT-15 colon
  TGI: > 100 µM
